The values that follow come from patent US11426084B2, “Method, apparatus and computer program for noninvasively determining cause of blood pressure change” (THE ASAN FOUNDATION, priority 2017, dated 2022).

This assay relates to blood pressure, myocardial contractile force and vascular resistance. The experiment in a line: Administration of a cardiovascular agonist/blocker; indexes on myocardial contractile force and vascular resistance and changes in S1a and S2a observed. In kind it is in vivo. The settings on record: for change in S1a and S2a when the drug is administered (in words): summary of Tables 2 to 4. On the procedure:
As cases of administering a cardiovascular agonist, Table 2 illustrates an experimental example in which various indexes on myocardial contractile force and vascular resistance and changes in S1a and S2a were observed when ephedrine of 10 mg as alpha and beta agonist was administered, Table 3 illustrates an experimental example in which various indexes on myocardial contractile force and vascular resistance and changes in S1a and S2a were observed when esmolol of 25 mg as beta-blocker was administered, and Table 4 illustrates an experimental example in which various indexes on myocardial contractile force and vascular resistance and changes in S1a and S2a were observed when phenylephrine of 100 mcg as the alpha agonist was administered. In order to determine the cause of the change in blood pressure, the above-described agents causing the change in blood pressure were administered and the response after the administration was examined.

Take `CN[C@@H](C)[C@H](O)c1ccccc1` [ephedrine]: the “change in S1a and S2a when the drug is administered (in words)” value (from here on “change in S1a and S2a”) was “S1a and S2a increase together”. The S12_R (after administration of ephedrine 10 mg, before administration 1.79 ± 0.83, P 0.209) is on record as 2.06 ± 0.84. The “S′” value (after administration of ephedrine 10 mg, before administration 9.7 ± 2.1, P 0.014) was found to be 11.3 ± 2.7. Besides, under “after administration of ephedrine 10 mg, before administration 17.7 ± 8.1, P 0.004”, the S2a worked out at 22.6 ± 9.2 au. Also, the S1a (after administration of ephedrine 10 mg, before administration 27.6 ± 12.6, P 0.012) is 43.7 ± 24.9 au. Further, the SBP (after administration of ephedrine 10 mg, before administration 109.6 ± 13.2, P <0.001) is 139.3 ± 14.0 mmHg. This molecule showed an RRI (after administration of ephedrine 10 mg, before administration 652 ± 70, P 0.029) of 625 ± 90 ms. In addition, the SVR (after administration of ephedrine 10 mg, before administration 719.4 ± 199.2, P 0.011) is on record as 892.6 ± 250.2 dyne · sec/cm^5. The molecule further gave a dp/dt (after administration of ephedrine 10 mg, before administration 725.2 ± 73.8, P 0.001) of 1065.5 ± 217.6 mmHg/s.

Turning to `CNC[C@H](O)c1cccc(O)c1` [phenylephrine], the “change in S1a and S2a” value is “any significant change does not occur in S1a unlike S2a”. In addition, the S12_R (after administration of phenylephrine 100 mcg, before administration 2.86 ± 1.73, P 0.531) came out at 4.18 ± 6.7. The S2a (after administration of phenylephrine 100 mcg, before administration 14.29 ± 7.53, P 0.016) was determined as 18.89 ± 8.14 au. The molecule further had an S1a (after administration of phenylephrine 100 mcg, before administration 33.6 ± 20.8, P 0.428) of 31.4 ± 15.5 au. Where the note is “after administration of phenylephrine 100 mcg, before administration 93.7 ± 13.2, P 0.014”, this molecule showed an SBP of 111.5 ± 13.8 mmHg. The molecule also came in with an SVR (after administration of phenylephrine 100 mcg, before administration 452.7 ± 110.0, P 0.007) of 524.0 ± 132.2 dyne · sec/cm^5. Besides, the RRI (after administration of phenylephrine 100 mcg, before administration 575 ± 141, P 0.384) is given as 528 ± 197 ms. The same molecule returned a dp/dt (after administration of phenylephrine 100 mcg, before administration 585.1 ± 106.1, P <0.001) of 744.8 ± 95.3 mmHg/s.

Turning to `COC(=O)CCc1ccc(OCC(O)CNC(C)C)cc1` (centres unmarked) [esmolol], the “change in S1a and S2a” value is listed as “only S1a is significantly decreased”. Also, the S12_R (after administration of esmolol 25 mg, before administration 2.6 ± 0.91, P 0.001) turned out to be 1.4 ± 0.38. For the same molecule, for the setting “after administration of esmolol 25 mg, before administration 13.7 ± 4.4, P 0.011”, the “S′” value is reported as 10.2 ± 2.1. Besides, the S2a (after administration of esmolol 25 mg, before administration 19.6 ± 5.5, P 0.162) came out at 21.1 ± 5.4 au. The S1a (after administration of esmolol 25 mg, before administration 49.3 ± 20.3, P 0.001) was 27.5 ± 9.3 au. For the same molecule, the SBP (after administration of esmolol 25 mg, before administration 136.1 ± 16.8, P <0.001) is recorded as 124.4 ± 13.2 mmHg. This molecule also showed an RRI (after administration of esmolol 25 mg, before administration 598 ± 96, P <0.001) of 700 ± 95 ms. Besides, for the setting “after administration of esmolol 25 mg, before administration 776.4 ± 256.1, P 0.062”, the SVR came out at 750.8 ± 251.0 dyne · sec/cm^5. The dp/dt (after administration of esmolol 25 mg, before administration 1051.5 ± 233.4, P <0.001) stood at 804.3 ± 151.1 mmHg/s.
